From US4650888A, “Pentaerythritol derivative” (Chugai Seiyaku Kabushiki Kaisha, priority 1984, dated 1987) come the findings set out here.

The assay concerns Shay rats (pylorus-ligated, gastric ulcers in the forestomach). Briefly: Anti-ulcer activity on Shay rats. It counts as in vivo. As to conditions: male SD rats, 300 mg/kg orally, 16 hours. The method, then: Anti-ulcer activity on Shay rats:
Male SD rats (180-200 g) were deprived of food for 48 hours and had free access to water. Under ether anesthesia the abdomen of each rat was incised and the pylorus ligated. Concurrently the test complex was orally administered and the abdomen was closed. The animals were killed 16 hours later by an overdose, and the stomach of each rat removed. The stomach was incised along the greater curvature and examined for gastric ulcers developed in the forestomach. The damaged mucosa in shay ulcers was measured under a dissecting microscope (x10) with a square grid, summed, and arbitrarily classified into 5 degrees by an erosion index.

Regarding `O=S(=O)([O-])OCC(COCC(COS(=O)(=O)[O-])(COS(=O)(=O)[O-])COS(=O)(=O)[O-])(COS(=O)(=O)[O-])COS(=O)(=O)[O-].[Na+].[Na+].[Na+].[Na+].[Na+].[Na+]` [Na salt, Sodium salt of sulfuric acid ester of dipentaerythritol], the “Erosion Index (mean ± SE)” value amounted to 1.4 ± 0.2. For the same molecule, the “Percent Inhibition (%)” value (versus control (H2O)) is on record as 58.8%.
